According to patent US12441710B2, “Substituted piperidino compounds and related methods of treatment” (Alkermes, Inc., priority 2020, dated 2025):

Key:
[1] = molecular target: T1, human orexin-2 receptor (OX2R) (Homo sapiens, UniProt O43614); experiment: Human OX2R IP1 assay; assay type: cell-based; settings: T-Rex CHO cells stably overexpressing human OX2R; IP1 accumulation, 1 hr at 37 degrees C
T1 construct: expressed in transfected cells
T1 sequence (O43614 1-444): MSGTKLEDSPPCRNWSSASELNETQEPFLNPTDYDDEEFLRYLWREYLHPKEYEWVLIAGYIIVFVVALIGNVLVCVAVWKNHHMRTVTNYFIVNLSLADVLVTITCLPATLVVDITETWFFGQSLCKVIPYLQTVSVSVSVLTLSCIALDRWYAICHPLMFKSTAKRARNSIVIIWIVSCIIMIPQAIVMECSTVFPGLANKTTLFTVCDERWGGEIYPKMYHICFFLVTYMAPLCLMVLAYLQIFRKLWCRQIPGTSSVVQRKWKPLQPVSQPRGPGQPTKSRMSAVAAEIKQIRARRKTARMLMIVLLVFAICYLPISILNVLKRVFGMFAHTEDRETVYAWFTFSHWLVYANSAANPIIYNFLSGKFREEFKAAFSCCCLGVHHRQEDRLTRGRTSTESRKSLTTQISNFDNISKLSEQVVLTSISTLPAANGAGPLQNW
Protocol: T-Rex CHO cells stably overexpressing the human orexin-2 receptor (OX2R) were induced overnight with 1 μg/mL of doxycycline in a T225 flask. 24 hours post induction, cells were lifted with accutase and plated into a 384-well proxy plate at 30,000 cells/well. Cells were then treated with different test compounds in 1× stimulation buffer containing 10 mM Hepes, 1 mM CaCl2), 0.5 mM MgCl2, 4.2 mM KCl, 146 mM NaCl, 5.5 mM glucose, and 50 mM LiCl, pH 7.4, for 1 hr at 37 degrees C. Following incubation, the reaction was terminated by the addition of detection mix, which is composed of IP1-d2 and anti-IP1-cryptate diluted in lysis buffer as well as 1× stimulation buffer. The plates were allowed to incubate for 1 hour at room temperature and were then read in the EnVision® multimode plate reader, measuring inositol phosphate levels.
Cisbio IP1 is a cell-based functional assay quantifying the accumulation of inositol monophosphate (IP), a metabolite released as a result of orexin 2 receptor activation through the phospholipase C-Gq signaling pathway. This is a competitive immunoassay in which the IP1 produced by the cells upon receptor activation competes with the IP1 analog coupled to the d2 fluorophore (acceptor) for binding to an anti-IP1 monoclonal antibody labeled with Eu cryptate (donor). The measured HTRF-FRET based signal is inversely proportional to the IP1 concentration produced.
The EC50 values reported in Table 2 were obtained according to the human OX2R IP1 assay described above. Data are the mean EC50 values±S.E.M. The compound methyl (2R,3S)-3-((methylsulfonyl)amino)-2-(((cis-4-phenylcyclohexyl)oxy)methyl)-piperidine-1-carboxylate (sometimes referred to herein as Reference Compound A) is a reference compound which is disclosed in Example 5 of PCT publication no. WO2017/135306.

human hepatocytes = experiment: Hepatocytes stability assay (human hepatocytes); assay type: in vitro ADME; settings: hepatic clearance divided by liver blood flow, fu assumed unity
Protocol: (§1) In vitro metabolic stability was assessed using cryopreserved hepatocytes from male Sprague Dawley rats and a pool of 50 mixed gender humans (BioIVT, Baltimore, MD). The incubation mixtures were prepared by mixing 250 μL of pre-warmed KHB (Krebs-Henseleit buffer) containing 2×10^6 cell/mL of hepatocytes with 250 μL of pre-warmed KHB buffer containing 2 μM of test compounds in a 48-well plate, giving a final concentration of 1 μM test compound (0.1% DMSO) and 1×10^6 cell/mL of hepatocytes. The reaction mixture was incubated at 37 degrees C. A 50 μL aliquot of incubation mixture was taken at time points (0, 15, 30, 60, 120 and 240 minutes) and transferred into a 96-well plate containing 300 μL ice-cold acetonitrile (containing 30 ng/mL of labetalol and 10 ng/mL of Naltrexone-d3 as internal standards) and immediately placed in ice to terminate the reaction. Samples were centrifuged, and supernatants were transferred into 96-well plates for liquid chromatography with tandem mass spectrometry (LC-MS/MS) analysis to monitor the depletion of the test compound. Data was calculated as percent remaining by assuming zero-minute time point peak area ratio (analyte/IS) as 100% and dividing remaining time point peak area ratios by zero-minute time point peak area ratio. Data were fitted to a first-order decay model to determine half-life. From a plot of log (ln) peak area against time, the slope of the line was determined. Subsequently, half-life (T1/2) and intrinsic clearance (CLint) were calculated using the equations below: • Elimination rate constant (k)=(−slope) • Half-life (T1/2) min=0.693/k • Intrinsic Clearance (CLint) (mL/min/million cells)=(V×0.693)/T1/2 • V=incubation volume mL/number of cells The in vitro T1/2 was converted to in vitro intrinsic clearance (CLint,hep) in units of mL/min/kg using the formula shown below: The in vitro intrinsic clearance (CLint,hep) was scaled to in vivo hepatic clearance (CL,hep) using the following equation which was adapted from a well-stirred model. [formula] where Q is the liver blood flow and fu is the fraction unbound (assumed to be unity in this case). All parameters used in the calculation are shown below (Table 4). The extraction ratio (ER) was calculated by dividing the hepatic clearance of a compound to the liver blood flow. The data reported in Table 5 were obtained according to the human hepatocytes stability assay described above.

[2] = Hepatocytes stability assay (human hepatocytes); assay type: in vitro ADME; settings: both sexes, cryopreserved hepatocytes, 1 μM test compound, 1×10^6 cell/mL, read-out: CLint (μL/min/million cells)
Protocol: as §1

Row | EC50 [1] | Structure (SMILES) | also measured
1 | < 100 nM | Cc1cccc([C@H]2CC[C@@H](OC[C@@H]3CN(c4ccccn4)CC[C@@H]3NS(C)(=O)=O)CC2)c1C [Compound 17] | 
2 | > 1000 nM | CS(=O)(=O)N[C@H]1CCN(c2ccccn2)C[C@H]1CO[C@H]1CC[C@@H](c2cnccn2)CC1 [Compound 9] | 
3 | < 100 nM | CS(=O)(=O)N[C@H]1CCN(c2ccccn2)C[C@H]1CO[C@H]1CC[C@@H](c2cccnc2)CC1 [Compound 3] | 
4 | < 100 nM | CS(=O)(=O)N[C@H]1CCN(c2ncccc2O)C[C@H]1CO[C@H]1CC[C@@H](c2ccccc2)CC1 [Compound 27] | 
5 | < 100 nM | C[C@@]1(CO[C@H]2CC[C@@H](c3ccccc3)CC2)CN(c2ccccn2)CC[C@@H]1NS(C)(=O)=O [Compound 29] | 
6 | < 100 nM | CS(=O)(=O)N[C@H]1CCN(c2nccc3ocnc23)C[C@H]1CO[C@H]1CC[C@@H](c2ccccc2)CC1 [Compound 45] | 
7 | < 100 nM | CS(=O)(=O)N[C@H]1CCN(c2ccccn2)C[C@H]1CO[C@H]1CC[C@@H](c2ccccn2)CC1 [Compound 2] | 
8 | > 1000 nM | CS(=O)(=O)N[C@H]1CCN(c2cccc3ncnn23)C[C@H]1CO[C@H]1CC[C@@H](c2ccccc2)CC1 [Compound 43] | 
9 | < 100 nM | Cc1ccccc1[C@H]1CC[C@@H](OC[C@@H]2CN(c3ccccn3)CC[C@@H]2NS(C)(=O)=O)CC1 [Compound 15] | 
10 | 100 to 1000 nM | CS(=O)(=O)N[C@H]1CCN(c2ccccn2)C[C@H]1CO[C@H]1CC[C@@H](c2ccccc2O)CC1 [Compound 30] | 
11 | < 100 nM | CS(=O)(=O)N[C@H]1CCN(c2ncccc2F)C[C@H]1CO[C@H]1CC[C@@H](c2ccccc2)CC1 [Compound 26] | 
12 | > 1000 nM | CS(=O)(=O)N[C@H]1CCN(c2ccccn2)C[C@H]1CO[C@H]1CC[C@@H](c2ccncn2)CC1 [Compound 8] | 
13 | 100 to 1000 nM | CS(=O)(=O)N[C@H]1CCN(c2nccc3ncnn23)C[C@H]1CO[C@H]1CC[C@@H](c2ccccc2)CC1 [Compound 44] | 
14 | < 100 nM | CS(=O)(=O)N[C@H]1CCN(c2ccccn2)C[C@H]1CO[C@H]1CC[C@@H](c2ccc(F)cc2)CC1 [Compound 7] | 
15 | < 100 nM | CS(=O)(=O)N[C@H]1CCN(c2ccc(F)cn2)C[C@H]1CO[C@H]1CC[C@@H](c2ccccc2)CC1 [Compound 24] | 
16 | > 1000 nM | CS(=O)(=O)N[C@H]1CCN(c2ccccn2)C[C@H]1CO[C@H]1CC[C@@H](c2cncnc2)CC1 [Compound 12] | 
17 | < 100 nM | CS(=O)(=O)N[C@H]1CCN(c2ccccn2)C[C@H]1CO[C@H]1CC[C@@H](c2cccc(C#N)c2)CC1 [Compound 35] | 
18 | < 100 nM | CS(=O)(=O)N[C@H]1CCN(c2cccc(F)n2)C[C@H]1CO[C@H]1CC[C@@H](c2ccccc2)CC1 [Compound 23] | 
19 | < 100 nM | CS(=O)(=O)N[C@H]1CCN(c2ncccn2)C[C@H]1CO[C@H]1CC[C@@H](c2ccccc2)CC1 [Compound 19] | 
20 | < 100 nM | CS(=O)(=O)N[C@H]1CCN(c2ccccn2)C[C@H]1CO[C@H]1CC[C@@H](c2cccc(O)c2)CC1 [Compound 31] | 

Row | EC50 [1] | Structure (SMILES) | also measured
21 | 100 to 1000 nM | CS(=O)(=O)N[C@H]1CCN(c2ccccn2)C[C@H]1CO[C@H]1CC[C@@H](c2cccc(C(F)(F)F)c2)CC1 [Compound 33] | 
22 | < 100 nM | CS(=O)(=O)N[C@H]1CCN(c2ccccn2)C[C@H]1CO[C@H]1CC[C@@H](c2ccc(O)cc2)CC1 [Compound 32] | 
23 | < 100 nM | Cc1cccc([C@H]2CC[C@@H](OC[C@@H]3CN(c4ccccn4)CC[C@@H]3NS(C)(=O)=O)CC2)c1 [Compound 16] | 
24 | < 100 nM | CS(=O)(=O)N[C@H]1CCN(c2ccncn2)C[C@H]1CO[C@H]1CC[C@@H](c2ccccc2)CC1 [Compound 20] | 
25 | > 1000 nM | CS(=O)(=O)N[C@H]1CCN(c2ccccn2)C[C@H]1CO[C@H]1CC[C@@H](c2cccnn2)CC1 [Compound 14] | 
26 | < 100 nM | CS(=O)(=O)N[C@H]1CCN(c2ccccn2)C[C@H]1CO[C@H]1CC[C@@H](c2ccncc2)CC1 [Compound 4] | 
27 | > 1000 nM | CS(=O)(=O)N[C@H]1CCN(Cc2ccccn2)C[C@H]1CO[C@H]1CC[C@@H](c2ccccc2)CC1 [Compound 39] | 
28 | > 1000 nM | CS(=O)(=O)N[C@H]1CCN(Cc2cccnc2)C[C@H]1CO[C@H]1CC[C@@H](c2ccccc2)CC1 [Compound 40] | 
29 | < 100 nM | CS(=O)(=O)N[C@H]1CCN(c2cccnn2)C[C@H]1CO[C@H]1CC[C@@H](c2ccccc2)CC1 [Compound 22] | 
30 | > 1000 nM | CS(=O)(=O)N[C@H]1CCN(Cc2ccccc2)C[C@H]1CO[C@H]1CC[C@@H](c2ccccc2)CC1 [Compound 36] | 
31 | < 100 nM | CS(=O)(=O)N[C@H]1CCN(c2ncccc2C(F)(F)F)C[C@H]1CO[C@H]1CC[C@@H](c2ccccc2)CC1 [Compound 28] | 
32 | > 1000 nM | CS(=O)(=O)N[C@H]1CCN(c2ccccn2)C[C@H]1CO[C@H]1CC[C@@H](c2ccnnc2)CC1 [Compound 13] | 
33 | < 100 nM | CS(=O)(=O)N[C@H]1CCN(c2cnccn2)C[C@H]1CO[C@H]1CC[C@@H](c2ccccc2)CC1 [Compound 21] | 
34 | < 100 nM | Cc1cc(C)cc([C@H]2CC[C@@H](OC[C@@H]3CN(c4ccccn4)CC[C@@H]3NS(C)(=O)=O)CC2)c1 [Compound 18] | 
35 | > 1000 nM | CS(=O)(=O)N[C@H]1CCN(c2ccccn2)C[C@H]1CO[C@H]1CC[C@@H](c2ncccn2)CC1 [Compound 11] | 
36 | > 1000 nM | CS(=O)(=O)N[C@H]1CCN(c2cccc3ccnn23)C[C@H]1CO[C@H]1CC[C@@H](c2ccccc2)CC1 [Compound 42] | 
37 | < 100 nM | CS(=O)(=O)N[C@H]1CCN(c2ccccn2)C[C@H]1CO[C@H]1CC[C@@H](c2ccccc2F)CC1 [Compound 5] | 
38 | < 100 nM | CS(=O)(=O)N[C@H]1CCN(c2ccccn2)C[C@H]1CO[C@H]1CC[C@@H](c2ccccc2)CC1 [Compound 10] | 
39 | > 1000 nM | CS(=O)(=O)N[C@H]1CCN(Cc2ccncc2)C[C@H]1CO[C@H]1CC[C@@H](c2ccccc2)CC1 [Compound 41] | 
40 |  | CS(=O)(=O)N[C@H]1CCN(c2ccccn2)CC1COC1CCC(c2ccccn2)CC1 (some centres unmarked) [Compound 2] | Extraction Ratio (ER) (human hepatocytes): 0.89; hepatocyte CLint at 1 μM [2]: 53 µL/min/1e6 cells
